Test results taken from patent US5087639A, “Preventing CNS toxicity of acivicin when used with four large neutral amino acids” (The Upjohn Company, priority 1988, dated 1992).
Read-outs that look alike come from different tables or passages of the source.

Legend:
[1] = Plasma pharmacokinetics of acivicin in cats with concomitant infusion; details: cat, in vivo, ip, 60 mg/kg, mean ± s.d.; for Vd/F: read-out: Varea
Protocol: Blood was sampled through the blood sampling cannula at -4.0, 0, +4, +6, +9, +12, +18, +24 and +30 hours relative to the acivicin dose, for determination of acivicin concentration by microbiological assay.

cancer patients [2] = details: cited from earlier work
cancer patients [3] = details: clinical trials conducted to date; cited from earlier work
tumor cell = details: laboratory data; cited from earlier work
Acivicin-Treated Cats = assay: Incidence of toxic symptoms (mydriasis, vomiting, sedation, ataxia) in acivicin-treated cats with concomitant infusion
[4] = acivicin 60 mg/kg i.p. plus infusion of the named solution, label Acivicin = saline infusion, affected/treated cats

Structure (SMILES): N[C@H](C(=O)O)[C@@H]1CC(Cl)=NO1 [Acivicin, (αS,5S)-α-amino-3-chloro-2-isoxazoline-5-acetic acid]
- CL/F ([1]; Aminosyn infusion, n=2): 1.83 mL/min/kg
- half-life ([1]; Aminosyn infusion, n=2): 258 ± 42 min
- k el ([1]; Aminosyn infusion, n=2): 4.44e-05 s⁻¹
- Vd/F ([1]; Aminosyn infusion, n=2): 0.684 ± 0.064 L/kg
- CL/F ([1]; LNAA infusion, n=3): 1.05 mL/min/kg
- half-life ([1]; LNAA infusion, n=3): 498 ± 48 min
- k el ([1]; LNAA infusion, n=3): 2.33e-05 s⁻¹
- Vd/F ([1]; LNAA infusion, n=3): 0.75 ± 0.081 L/kg
- CL/F ([1]; OAA infusion, n=3): 1.28 mL/min/kg
- half-life ([1]; OAA infusion, n=3): 444 ± 63.6 min
- k el ([1]; OAA infusion, n=3): 2.64e-05 s⁻¹
- Vd/F ([1]; OAA infusion, n=3): 0.814 ± 0.061 L/kg
- CL/F ([1]; Saline infusion, n=3): 1.28 mL/min/kg
- half-life ([1]; Saline infusion, n=3): 504 ± 150 min
- k el ([1]; Saline infusion, n=3): 2.42e-05 s⁻¹
- Vd/F ([1]; Saline infusion, n=3): 0.893 ± 0.143 L/kg
- CL/F ([1]; second line "aminosyn", n=4): 0.918 mL/min/kg
- half-life ([1]; second line "aminosyn", n=4): 491 ± 81.6 min
- k el ([1]; second line "aminosyn", n=4): 2.58e-05 s⁻¹
- Vd/F ([1]; second line "aminosyn", n=4): 0.625 ± 0.0123 L/kg
- CL/F ([1]; second line "saline", n=4): 1.85 mL/min/kg
- half-life ([1]; second line "saline", n=4): 156 ± 24.6 min
- k el ([1]; second line "saline", n=4): 7.64e-05 s⁻¹
- Vd/F ([1]; second line "saline", n=4): 0.408 ± 0.0331 L/kg
- CNS effects in humans (cancer patients [2]; dose-limiting): reversible, dose-limiting CNS effects such as sedation, ataxia, personality changes and hallucinations
- dose-limiting toxicity (cancer patients [2]; previous Phase I and II trials): neurotoxicity which is dose-dependent and reversible
- efficacy in clinical trials (cancer patients [3]): marginal
- dependence of cytotoxicity on tumor cell exposure concentration and duration (tumor cell): strong dependence
- incidence of ataxia (Acivicin-Treated Cats; [4]): 4/4
- incidence of mydriasis (Acivicin-Treated Cats; [4]): 4/4
- incidence of sedation (Acivicin-Treated Cats; [4]): 4/4
- incidence of vomiting (Acivicin-Treated Cats; [4]): 1/4
- ataxia and sedation (in words) (Acivicin-Treated Cats; acivicin-treated cats, label Acivicin = saline-treated): both ataxic sedated
